Laboratory results reported in patent publication US6399628B1, “N-(aryl/heteroaryl) amino acid esters, pharmaceutical compositions comprising same, and methods for inhibiting alpha- amyloid peptide release and/or its synthesis by use of such compounds” (Athena Neurosciences, Inc., priority 1996, dated 2002).

melting point: 81 to 83 °C
Structure (SMILES): CCOC(=O)C(CC)Nc1ccc2ccccc2c1 (stereo not shown) [Example 39, 2-[N-(naphth-2-yl)amino]butanoic acid ethyl ester]
